Source: patent publication US8952024B2, “Herbicidal pyrimidone derivatives” (E I du Pont de Nemours and Company, priority 2009, dated 2015)

How the values were obtained:
Test in all cases: Test B pre-/postemergence plant response
Format in all cases: in vivo
[1] = tested on: bermudagrass (Cynodon dactylon)
Method in brief: (§1)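 Seeds sown in loam–sand blend were treated preemergence, and plants at 2–18 cm (1- to 4-leaf stage) in peat-based medium were treated postemergence; compounds were formulated in non-phytotoxic solvent with surfactant. After 13–15 days in greenhouse, response was visually rated against controls, 0 (no effect) to 100 (complete control).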

[2] = tested on: goosegrass (Eleusine indica)
Method in brief: as §1

[3] = tested on: green foxtail (Setaria viridis)
Method in brief: as §1

[4] = tested on: johnsongrass (Sorghum halepense)
Method in brief: as §1

kochia (Kochia scoparia) = tested on: kochia (Kochia scoparia)
Method in brief: as §1

[5] = tested on: lambsquarters (Chenopodium album)
Method in brief: as §1

[6] = tested on: large crabgrass (Digitaria sanguinalis)
Method in brief: as §1

[7] = tested on: ragweed (common ragweed, Ambrosia elatior)
Method in brief: as §1

soybean (Glycine max) = tested on: soybean (Glycine max)
Method in brief: as §1

[8] = tested on: velvetleaf (Abutilon theophrasti)
Method in brief: as §1

[9] = tested on: wheat (Triticum aestivum)
Method in brief: as §1

[10] = tested on: woolly cupgrass (Eriochloa villosa)
Method in brief: as §1

[11] = tested on: yellow nutsedge (Cyperus esculentus)
Method in brief: as §1

[12] = 31 g ai/ha, postemergence, scale 0 to 100, 0 is no effect, 100 is complete control
[13] = 62 g ai/ha, postemergence, 0 is no effect, 100 is complete control, 13 to 15 days
[14] = Postemergence, 125 g ai/ha, visual rating after 13 to 15 days, scale 0 (no effect) to 100 (complete control)
[15] = Postemergence, 250 g ai/ha, scale 0 to 100 (0 no effect, 100 complete control)

CCCCCn1c(-c2ccccc2)ncc(C(=O)C2=C(O)CCCC2=O)c1=O [Compound 89]
Plant response rating, Bermudagrass [1, 12]: 75 | Bermudagrass plant response rating (0 to 100 scale) [1, 13]: 85 | Plant response rating, Bermudagrass [1, 14]: 95 | Plant response rating, Bermudagrass [1, 15]: 95 | Plant response rating, Goosegrass [2, 12]: 55 | Goosegrass plant response rating (0 to 100 scale) [2, 13]: 65 | Plant response rating, Goosegrass [2, 15]: 80 | Plant response rating, Foxtail, Green [3, 12]: 60 | Foxtail, Green plant response rating (0 to 100 scale) [3, 13]: 70 | Plant response rating, Foxtail, Green [3, 15]: 80 | Plant response rating, Johnsongrass [4, 12]: 25 | Johnsongrass plant response rating (0 to 100 scale) [4, 13]: 90 | Plant response rating, Johnsongrass [4, 15]: 100 | Plant response rating, Kochia (kochia (Kochia scoparia); [12]): 65 | Kochia plant response rating (0 to 100 scale) (kochia (Kochia scoparia); [13]): 75 | Plant response rating, Kochia (kochia (Kochia scoparia); [15]): 100 | Plant response rating, Lambsquarters [5, 12]: 95 | Lambsquarters plant response rating (0 to 100 scale) [5, 13]: 98 | Plant response rating, Lambsquarters [5, 15]: 100 | Plant response rating, Crabgrass, Large [6, 12]: 85 | Crabgrass, Large plant response rating (0 to 100 scale) [6, 13]: 95 | Plant response rating, Crabgrass, Large [6, 14]: 95 | Plant response rating, Crabgrass, Large [6, 15]: 98 | Plant response rating, Ragweed [7, 12]: 70 | Ragweed plant response rating (0 to 100 scale) [7, 13]: 85 | Plant response rating, Ragweed [7, 15]: 100 | Plant response rating, Soybean (soybean (Glycine max); [12]): 90 | Soybean plant response rating (0 to 100 scale) (soybean (Glycine max); [13]): 90 | Plant response rating, Soybean (soybean (Glycine max); [15]): 98 | Plant response rating, Velvetleaf [8, 12]: 90 | Velvetleaf plant response rating (0 to 100 scale) [8, 13]: 95 | Plant response rating, Velvetleaf [8, 15]: 100 | Plant response rating, Wheat [9, 12]: 0 | Wheat plant response rating (0 to 100 scale) [9, 13]: 5 | Plant response rating, Wheat [9, 15]: 10 | Plant response rating, Cupgrass, Woolly [10, 12]: 35 | Cupgrass, Woolly plant response rating (0 to 100 scale) [10, 13]: 50 | Plant response rating, Cupgrass, Woolly [10, 14]: 65 | Plant response rating, Cupgrass, Woolly [10, 15]: 75 | Plant response rating, Nutsedge, Yellow [11, 12]: 35 | Nutsedge, Yellow plant response rating (0 to 100 scale) [11, 13]: 55 | Plant response rating, Nutsedge, Yellow [11, 15]: 75
